One experiment deals with T1, Human M4 (Homo sapiens, UniProt P08173).
T1 construct: expressed in transfected cells; host or cells: CHO-K1 (Chinese hamster ovary, ATCC), stably expressing M4 and Gqi5
T1 sequence (P08173 1-479): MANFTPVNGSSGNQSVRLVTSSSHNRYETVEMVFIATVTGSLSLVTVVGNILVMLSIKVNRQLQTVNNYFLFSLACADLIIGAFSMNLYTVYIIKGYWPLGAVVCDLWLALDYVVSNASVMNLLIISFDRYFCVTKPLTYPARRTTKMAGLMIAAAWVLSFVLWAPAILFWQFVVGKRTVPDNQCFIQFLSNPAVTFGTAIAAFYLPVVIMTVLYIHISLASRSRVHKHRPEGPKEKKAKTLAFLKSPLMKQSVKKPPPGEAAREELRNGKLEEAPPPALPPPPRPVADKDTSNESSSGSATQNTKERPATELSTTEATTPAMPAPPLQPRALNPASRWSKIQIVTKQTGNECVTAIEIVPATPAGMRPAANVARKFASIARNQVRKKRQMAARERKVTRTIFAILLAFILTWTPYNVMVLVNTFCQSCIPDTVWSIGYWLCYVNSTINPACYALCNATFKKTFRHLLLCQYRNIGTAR
Nature of the experiment: mAChR M4 cell-based functional assay (calcium flux, EC80 acetylcholine response). The procedure:
Human or rat M4 cDNA, along with the chimeric G protein Gqi5, were transfected into Chinese hamster ovary (CHO-K1) cells purchased from the American Type Culture Collection using Lipofectamine2000. M4/Gqi5/CHO cells were grown in Ham's F-12 medium containing […] heat-inactivated fetal bovine serum (FBS), 20 mM HEPES, 500 μg/mL G418 sulfate, and 200 μg/mL Hygromycin B.
For high throughput measurement of agonist-evoked increases in intracellular calcium, CHO-K1 cells stably expressing muscarinic receptors were plated in growth medium lacking G418 and hygromycin at 15,000 cells/20 μL/well in Greiner 384-well black-walled, tissue culture (TC)-treated, clear-bottom plates (VWR). Cells were incubated overnight at 37° C. and 500 CO2. […] Compound master plates were formatted in a 10 point concentration-response curve (CRC) format (1:3 dilutions) in 100% DMSO with a starting concentration of 10 or 1 mM using a BRAVO liquid handler (Agilent). Test compound CRCs were then transferred to daughter plates (240 nL) using the Echo acoustic plate reformatter (Labcyte, Sunnyvale, CA) and then diluted into assay buffer (40 μL) to a 2× stock using a Thermo Fisher Combi (Thermo Fisher Scientific, Waltham, MA).
Calcium flux was measured using the Functional Drug Screening System (FDSS) 6000 or 7000 (Hamamatsu Corporation, Tokyo, Japan) as an increase in the fluorescent static ratio. Compounds were applied to cells (20 μL, 2×) using the automated system of the FDSS at 2 seconds into the protocol and the data were collected at 1 Hz. […] Agonist activity was analyzed as a concentration-dependent increase in calcium mobilization upon compound addition. Positive allosteric modulator activity was analyzed as a concentration-dependent increase in the EC20 acetylcholine response. Antagonist activity was analyzed as a concentration-dependent decrease in the EC80 acetylcholine response; for the purposes of the tables herein, an IC50 (inhibitory concentration 50) was calculated as a concentration-dependent decrease of the response elicited by an EC80 concentration of acetylcholine. Concentration-response curves were generated using a four-parameter logistical equation in XLFit curve fitting software (IDBS, Bridgewater, NJ) for Excel (Microsoft, Redmond, WA) or Prism (GraphPad Software, Inc., San Diego, CA) or the Dotmatics software platform (Dotmatics, Bishop's Stortford, UK).
Compounds were synthesized as described above.
(Calcium flux is commonly read through the fluorescence of an indicator in the cells.)

Experiment [1] has as its system catalepsy induced by the DA receptor antagonist haloperidol. The note with it: cited from earlier work.
[2] abbreviates: M4/Gqi5/CHO-K1 cells, % ACh maximum at 30 μM, read-out: Human M4 Emin (% ACh maximum at 30 μM).
[3] abbreviates: M4/Gqi5/CHO-K1 cells, decrease of the response to an EC80 concentration of acetylcholine, read-out: Human M4 IC50.

Where two headings read alike, the source gives them in different places.

A word on the IC50: it is the midpoint of a concentration-inhibition curve.

On to `[2H]C([2H])(C1CCOCC1(C)C)N1C[C@H]2C[C@H](Nc3ccc(-c4ccc5nn(C)cc5c4C)nn3)C[C@H]2C1` (stereo partly drawn) [compound 17, (3aR,5s,6aS)-N-(6-(2,4-dimethyl-2H-indazol-5-yl)pyridazin-3-yl)-2-((3,3-dimethyltetrahydro-2H-pyran-4-yl)methyl-d2)octahydrocyclopenta[c]pyrrol-5-amine], for which, on Human M4 (setting [2]), the remaining activity at 30 µM is 3%. Moreover, the IC50 at Human M4 (setting [3]) is 0.9 nM.
In the case of `[2H]C([2H])(C1CCOC(C)(C)C1)N1C[C@H]2C[C@H](Nc3ccc(-c4ccc5nn(C)cc5c4C)nn3)C[C@H]2C1` (stereo partly drawn) [compound 18, (3aR,5s,6aS)-N-(6-(2,4-dimethyl-2H-indazol-5-yl)pyridazin-3-yl)-2-((2,2-dimethyltetrahydro-2H-pyran-4-yl)methyl-d2)octahydrocyclopenta[c]pyrrol-5-amine], at Human M4 (setting [2]), the remaining activity at 30 µM is 4%. For the same compound, the IC50 at Human M4 (setting [3]) amounted to 0.99 nM.
With `[2H]C([2H])(C1CC(C)(C)OC(C)(C)C1)N1C[C@H]2C[C@H](Nc3ccc(-c4ccc5nn(C)cc5c4C)nn3)C[C@H]2C1` [compound 19, (3aR,5s,6aS)-N-(6-(2,4-dimethyl-2H-indazol-5-yl)pyridazin-3-yl)-2-((2,2,6,6-tetramethyltetrahydro-2H-pyran-4-yl)methyl-d2)octahydrocyclopenta[c]pyrrol-5-amine], at Human M4 (setting [2]), the remaining activity at 30 µM was 5%. Besides, at Human M4 (setting [3]), the IC50 is 5 nM.
For `[2H]C([2H])(N1C[C@H]2C[C@H](Nc3ccc(-c4ccc5nn(C)cc5c4C)nn3)C[C@H]2C1)C1(F)CCOCC1` [compound 20, (3aR,5s,6aS)-N-(6-(2,4-dimethyl-2H-indazol-5-yl)pyridazin-3-yl)-2-((4-fluorotetrahydro-2H-pyran-4-yl)methyl-d2)octahydrocyclopenta[c]pyrrol-5-amine], on Human M4 (setting [2]), the remaining activity at 30 µM worked out at 4%. For the same compound, the IC50 at Human M4 (setting [3]) was 0.99 nM.
The matching figures for `[2H]C1([2H])CC(C([2H])([2H])N2C[C@H]3C[C@H](Nc4ccc(-c5ccc6nn(C)cc6c5C)nn4)C[C@H]3C2)CC([2H])([2H])O1` [compound 21, (3aR,5s,6aS)-N-(6-(2,4-dimethyl-2H-indazol-5-yl)pyridazin-3-yl)-2-((tetrahydro-2H-pyran-4-yl-2,2,6,6-d4)methyl-d2)octahydrocyclopenta[c]pyrrol-5-amine]: 3% and 0.4 nM.
For `[2H]C([2H])(C1CCOCC1)N1C[C@H]2C[C@H](Nc3ccc(-c4ccc5nn(C([2H])([2H])[2H])cc5c4C(F)F)nn3)C[C@H]2C1` [compound 22, (3aR,5s,6aS)-N-(6-(4-(difluoromethyl)-2-(methyl-d3)-2H-indazol-5-yl)pyridazin-3-yl)-2-((tetrahydro-2H-pyran-4-yl)methyl-d2)octahydrocyclopenta[c]pyrrol-5-amine] the same measures were 4% and 0.65 nM.
Turning to `[2H]C([2H])(N1C[C@H]2C[C@H](Nc3ccc(-c4ccc5nn(C)cc5c4C)nn3)C[C@H]2C1)C(F)(F)C1CCOCC1` [compound 23, (3aR,5s,6aS)-2-(2,2-difluoro-2-(tetrahydro-2H-pyran-4-yl)ethyl-1,1-d2)-N-(6-(2,4-dimethyl-2H-indazol-5-yl)-pyridazin-3-yl)octahydrocyclopenta[c]pyrrol-5-amine], the remaining activity at 30 µM on Human M4 (setting [2]) worked out at 4%. Moreover, the IC50 on Human M4 (setting [3]) turned out to be 1.8 nM.
`[2H]C1([2H])CC(C([2H])([2H])N2C[C@H]3C[C@H](Nc4nnc(-c5ccc6nn(C)cc6c5C)cc4C)C[C@H]3C2)CC([2H])([2H])O1` [compound 24, (3aR,5s,6aS)-N-(6-(2,4-dimethyl-2H-indazol-5-yl)-4-methylpyridazin-3-yl)-2-((tetrahydro-2H-pyran-4-yl-2,2,6,6-d4)methyl-d2)octahydrocyclopenta[c]pyrrol-5-amine]: the remaining activity at 30 µM at Human M4 (setting [2]) is 3%. Moreover, on Human M4 (setting [3]), the IC50 was 0.21 nM.
Regarding `Cc1c(-c2nnc(N[C@H]3C[C@@H]4CN(CC5CCOCC5)C[C@@H]4C3)c3ccsc23)ccc2nn(C)cc12` [compound 25, 7-(2,4-dimethyl-2H-indazol-5-yl)-N-((3aR,5s,6aS)-2-((tetrahydro-2H-pyran-4-yl)methyl)-octahydrocyclopenta[c]pyrrol-5-yl)-thieno[2,3-d]pyridazin-4-amine], at Human M4, the IC50 was found to be 0.5 nM. In addition, the remaining activity at 30 µM on Human M4 (CHO-K1, read-out: Human M4 Emin (% ACh maximum at 30 μM)) was 7%.
For the compound `COc1cc(-c2ccc3nn(C)cc3c2C)nnc1N[C@H]1C[C@@H]2CN(CC3CCOCC3)C[C@@H]2C1` [compound 26, (3aR,5s,6aS)-N-(6-(2,4-dimethyl-2H-indazol-5-yl)-4-methoxypyridazin-3-yl)-2-((tetrahydro-2H-pyran-4-yl)-methyl)octahydrocyclopenta[c]pyrrol-5-amine], the remaining activity at 30 µM on Human M4 (setting [2]) turned out to be 4%. Further, the IC50 on Human M4 (setting [3]) stood at 0.79 nM.
The matching figures for `Cc1cc(N[C@H]2C[C@@H]3CN(CC4CCOCC4)C[C@@H]3C2)nnc1-c1ccc2nn(C)cc2c1C` [compound 27, (3aR,5s,6aS)-N-(6-(2,4-dimethyl-2H-indazol-5-yl)-5-methylpyridazin-3-yl)-2-((tetrahydro-2H-pyran-4-yl)methyl)octahydrocyclopenta[c]pyrrol-5-amine]: 3% and 0.76 nM.
Turning to `[2H]C([2H])(C1CCOCC1)N1C[C@H]2C[C@H](Nc3nnc(-c4ccc5nn(C)cc5c4C)cc3C)C[C@H]2C1` [compound 28, (3aR,5s,6aS)-N-(6-(2,4-dimethyl-2H-indazol-5-yl)-4-methylpyridazin-3-yl)-2-((tetrahydro-2H-pyran-4-yl)methyl-d2)octahydrocyclopenta[c]pyrrol-5-amine], at Human M4 (setting [2]), the remaining activity at 30 µM was 17%.
The same measure, in the same setting: with `Cc1c(-c2cc(C(F)F)c(N[C@H]3C[C@@H]4CN(CC5CCOCC5)C[C@@H]4C3)nn2)ccc2nn(C)cc12` [compound 29, (3aR,5s,6aS)-N-(4-(difluoromethyl)-6-(2,4-dimethyl-2H-indazol-5-yl)pyridazin-3-yl)-2-((tetrahydro-2H-pyran-4-yl)methyl)octahydrocyclopenta[c]pyrrol-5-amine] the figure was 3%; with `Cc1c(-c2cc(C(F)(F)F)c(N[C@H]3C[C@@H]4CN(CC5CCOCC5)C[C@@H]4C3)nn2)ccc2nn(C)cc12` [compound 30, (3aR,5s,6aS)-N-(6-(2,4-dimethyl-2H-indazol-5-yl)-4-(trifluoromethyl)-pyridazin-3-yl)-2-((tetrahydro-2H-pyran-4-yl)methyl)-octahydrocyclopenta[c]pyrrol-5-amine], 2%.
Consider `CN1[C@@H]2C[C@@H](OC(=O)[C@H](CO)c3ccccc3)C[C@H]1[C@@H]1O[C@@H]12` [scopolamine], for which, in experiment [1] (M4 KO mice), the “reduction of haloperidol-induced catalepsy” value was “ineffective”. The “reversal of haloperidol-induced catalepsy” value in experiment [1] (WT mice) is reported as “completely reversed”.
